{"source": "patent US11207431B2", "about": "“HDAC6 inhibitors and imaging agents” (The General Hospital Corporation, priority 2017, dated 2021)", "key": {"[1]": {"test_system": "DiscoverX Safety47 panel: 24 GPCRs, 2 nuclear hormone receptors, 3 neurotransmitter transporters, 8 ion channels, 4 kinases, 6 other enzymes", "experiment": "Safety (DiscoverX Safety47 Panel)", "conditions": "at 10 μM; 78 assays"}, "[2]": {"conditions": "male, C57BL/6, mouse, in vivo, po, 5 mg/kg"}, "in vitro [3]": {"experiment": "in vitro", "conditions": "mouse, microsomes"}, "PET/CT imaging in rats": {"experiment": "PET/CT imaging in rats", "type": "in vivo, Sprague-Dawley rats", "method": "8 male Sprague-Dawley rats (Charles River Laboratories) were used for PET imaging. […] For intravenous administration, a catheter with an extension line was placed in a lateral tail vein. Each animal received a bolus injection of either vehicle (1:1:8 DMSO/Tween80/saline) or blocking agent in solution (1 mg/kg, 1 mg/mL in 1:1:8 DMSO/Tween80/saline) immediately prior to injection of the radiotracer.\nAfter injection of a radiotracer bolus ([…] Example 2) a 90 min dynamic PET scan was acquired in pairs for all animals. PET scans were performed on a GammaMedica Triumph PET/CT/SPECT scanner, corrected for attenuation with a μ-map derived from the corresponding CT image, which was acquired immediately following the PET scan. The dynamic PET data was binned into 38 timeframes (8×15 s, 8×1 min, 10×2 min, 12×5) and reconstructed individually via an iterative MLEM (maximum likelihood expectation maximization) algorithm in 16 iterations.\nPET images were to the CT image acquired from the same animal using AMIDE Data sets were cropped and all further image analysis was conducted using PMOD 3.3 (PMOD Technologies, Zurich, Switzerland). For maximum consistency, the data were coregistered to the Schiffer Px Rat rat brain template and data was derived from a whole brain VOI (volumes of interest) for time activity curves."}, "HDAC2 [4]": {"target": "T1, HDAC2 (Homo sapiens (Human), UniProt Q92769)", "T1 sequence (Q92769 whole entry)": "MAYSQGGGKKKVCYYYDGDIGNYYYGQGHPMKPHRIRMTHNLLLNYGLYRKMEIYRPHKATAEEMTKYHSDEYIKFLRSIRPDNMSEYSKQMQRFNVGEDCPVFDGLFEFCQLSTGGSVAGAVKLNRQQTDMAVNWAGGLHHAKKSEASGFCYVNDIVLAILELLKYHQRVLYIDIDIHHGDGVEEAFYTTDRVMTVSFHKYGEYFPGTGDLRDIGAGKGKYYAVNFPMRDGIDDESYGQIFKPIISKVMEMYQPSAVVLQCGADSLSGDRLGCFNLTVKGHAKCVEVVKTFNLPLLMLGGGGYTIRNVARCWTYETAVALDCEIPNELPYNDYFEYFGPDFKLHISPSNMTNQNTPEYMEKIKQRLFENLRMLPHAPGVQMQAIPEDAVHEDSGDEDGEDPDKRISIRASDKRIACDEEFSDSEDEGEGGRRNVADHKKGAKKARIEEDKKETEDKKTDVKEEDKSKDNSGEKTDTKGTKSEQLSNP", "experiment": "IC50 assay, BPS Biosciences fluorescence assay", "type": "biochemical", "conditions": "IC50 measured by BPS"}, "in vitro [5]": {"experiment": "in vitro", "conditions": "rat, microsomes"}, "in vivo": {"experiment": "in vivo", "conditions": "C57BL/6, mouse"}, "[6]": {"experiment": "Brain penetrance comparison", "conditions": "in vivo"}, "HDAC1 [7]": {"target": "T2, HDAC1 (Homo sapiens (Human), UniProt Q13547)", "T2 sequence (Q13547 whole entry)": "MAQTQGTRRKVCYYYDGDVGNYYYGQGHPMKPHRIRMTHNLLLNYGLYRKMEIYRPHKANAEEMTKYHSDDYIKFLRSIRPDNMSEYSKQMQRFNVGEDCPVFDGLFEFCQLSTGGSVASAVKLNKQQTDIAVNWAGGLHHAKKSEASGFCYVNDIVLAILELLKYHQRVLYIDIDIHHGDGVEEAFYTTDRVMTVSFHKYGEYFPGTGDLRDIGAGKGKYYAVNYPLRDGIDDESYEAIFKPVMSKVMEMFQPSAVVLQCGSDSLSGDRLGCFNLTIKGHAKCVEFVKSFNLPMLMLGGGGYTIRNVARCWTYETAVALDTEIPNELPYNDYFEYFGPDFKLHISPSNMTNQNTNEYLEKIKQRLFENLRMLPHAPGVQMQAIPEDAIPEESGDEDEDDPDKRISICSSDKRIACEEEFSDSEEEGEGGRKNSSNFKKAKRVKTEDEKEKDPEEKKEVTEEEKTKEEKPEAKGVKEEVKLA", "experiment": "IC50 assay by Nanosyn (Caliper microfluidics mobility shift detection)", "type": "biochemical", "conditions": "IC50 measured by Nanosyn", "method": "(§1) IC50 measurements were conducted by BPS Biosciences (Table 1) or by Nanosyn (Table 1A) with an established fluorescence assay. […] A=Martinostat (Caliper (microfluidics mobility shift detection) by Nanosyn (same run, duplicates));"}, "HDAC3 [8]": {"target": "T3, HDAC3 (Homo sapiens (Human), UniProt O15379)", "T3 sequence (O15379 whole entry)": "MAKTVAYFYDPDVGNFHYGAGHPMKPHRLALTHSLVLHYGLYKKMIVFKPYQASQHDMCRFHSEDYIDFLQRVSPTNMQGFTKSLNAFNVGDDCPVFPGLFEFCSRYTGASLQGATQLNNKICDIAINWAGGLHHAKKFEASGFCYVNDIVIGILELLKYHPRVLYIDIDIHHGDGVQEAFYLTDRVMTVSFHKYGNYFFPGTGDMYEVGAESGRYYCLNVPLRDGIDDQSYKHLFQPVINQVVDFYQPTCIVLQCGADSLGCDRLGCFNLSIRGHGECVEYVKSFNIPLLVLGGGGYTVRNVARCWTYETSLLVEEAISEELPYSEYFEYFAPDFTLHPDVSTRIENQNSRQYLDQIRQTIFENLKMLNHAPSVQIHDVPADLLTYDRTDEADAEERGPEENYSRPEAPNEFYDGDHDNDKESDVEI", "T3 sequence (Q9Y618 395-489 partner)": "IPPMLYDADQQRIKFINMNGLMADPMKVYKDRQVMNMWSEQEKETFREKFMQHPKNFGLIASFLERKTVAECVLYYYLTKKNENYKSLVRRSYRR", "experiment": "IC50 assay by Nanosyn (Caliper microfluidics mobility shift detection)", "type": "biochemical", "conditions": "IC50 measured by Nanosyn", "method": "as §1"}, "HDAC10 [9]": {"target": "T4, HDAC10 (Homo sapiens (Human), UniProt Q969S8)", "T4 sequence (Q969S8 whole entry)": "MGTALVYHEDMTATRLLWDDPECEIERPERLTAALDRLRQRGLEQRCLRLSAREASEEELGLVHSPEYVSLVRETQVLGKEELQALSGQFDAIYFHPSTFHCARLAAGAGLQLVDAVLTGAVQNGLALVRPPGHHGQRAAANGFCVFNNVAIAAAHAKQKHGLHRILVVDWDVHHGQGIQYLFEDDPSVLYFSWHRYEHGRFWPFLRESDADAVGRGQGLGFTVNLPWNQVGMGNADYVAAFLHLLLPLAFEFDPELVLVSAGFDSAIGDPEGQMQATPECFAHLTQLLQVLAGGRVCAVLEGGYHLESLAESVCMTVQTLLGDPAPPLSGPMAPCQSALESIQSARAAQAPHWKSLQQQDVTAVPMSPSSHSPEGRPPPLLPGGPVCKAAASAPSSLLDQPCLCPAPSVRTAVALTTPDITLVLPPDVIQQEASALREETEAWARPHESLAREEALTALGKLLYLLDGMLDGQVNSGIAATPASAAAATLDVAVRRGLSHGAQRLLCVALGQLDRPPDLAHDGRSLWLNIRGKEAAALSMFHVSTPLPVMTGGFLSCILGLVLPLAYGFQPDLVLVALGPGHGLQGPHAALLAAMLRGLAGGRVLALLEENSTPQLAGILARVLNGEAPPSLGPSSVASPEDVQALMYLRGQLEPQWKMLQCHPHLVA", "experiment": "IC50 assay by Nanosyn (Caliper microfluidics mobility shift detection)", "type": "biochemical", "conditions": "IC50 measured by Nanosyn", "method": "as §1"}, "HDAC2 [10]": {"target": "T1, HDAC2", "experiment": "IC50 assay by Nanosyn (Caliper microfluidics mobility shift detection)", "type": "biochemical", "conditions": "IC50 measured by Nanosyn", "method": "as §1"}, "Hepatocyte stability": {"experiment": "Hepatocyte stability", "conditions": "human, hepatocytes"}, "HDAC6": {"target": "HDAC6 (Rattus norvegicus (Rat), UniProt A0A8I6GM68)", "sequence (A0A8I6GM68 whole entry)": "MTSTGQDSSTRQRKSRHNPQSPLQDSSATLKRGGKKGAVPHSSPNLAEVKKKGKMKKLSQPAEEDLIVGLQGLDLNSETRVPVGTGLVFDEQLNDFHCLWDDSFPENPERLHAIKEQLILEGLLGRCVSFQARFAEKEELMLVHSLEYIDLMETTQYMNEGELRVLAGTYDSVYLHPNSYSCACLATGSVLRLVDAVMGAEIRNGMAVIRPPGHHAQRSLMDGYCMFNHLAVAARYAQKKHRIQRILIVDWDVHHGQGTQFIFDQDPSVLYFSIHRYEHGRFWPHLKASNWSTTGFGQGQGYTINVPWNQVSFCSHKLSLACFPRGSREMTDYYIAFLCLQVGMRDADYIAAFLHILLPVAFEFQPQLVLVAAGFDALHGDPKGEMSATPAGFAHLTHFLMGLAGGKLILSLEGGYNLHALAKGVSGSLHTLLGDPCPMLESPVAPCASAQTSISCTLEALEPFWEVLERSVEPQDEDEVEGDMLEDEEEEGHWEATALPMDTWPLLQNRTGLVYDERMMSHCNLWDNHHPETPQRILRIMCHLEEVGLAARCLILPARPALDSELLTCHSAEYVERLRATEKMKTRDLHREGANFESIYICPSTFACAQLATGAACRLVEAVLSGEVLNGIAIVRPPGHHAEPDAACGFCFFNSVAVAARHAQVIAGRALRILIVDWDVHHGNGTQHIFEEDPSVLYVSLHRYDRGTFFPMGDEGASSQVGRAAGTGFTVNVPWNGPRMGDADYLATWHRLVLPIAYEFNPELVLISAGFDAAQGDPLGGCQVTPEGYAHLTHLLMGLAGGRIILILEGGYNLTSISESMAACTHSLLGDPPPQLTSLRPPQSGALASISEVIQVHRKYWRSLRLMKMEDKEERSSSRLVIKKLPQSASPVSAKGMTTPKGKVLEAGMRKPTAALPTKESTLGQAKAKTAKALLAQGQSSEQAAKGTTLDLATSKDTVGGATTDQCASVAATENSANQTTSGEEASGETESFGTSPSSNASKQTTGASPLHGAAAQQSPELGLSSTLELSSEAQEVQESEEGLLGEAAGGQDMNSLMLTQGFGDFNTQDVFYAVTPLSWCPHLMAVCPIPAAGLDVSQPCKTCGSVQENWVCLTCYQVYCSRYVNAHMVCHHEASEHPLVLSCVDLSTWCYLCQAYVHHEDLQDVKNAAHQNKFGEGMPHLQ", "experiment": "Autoradiography competition with radiolabeled Example 2 on rat brain slices", "type": "binding, Sprague-Dawley rat", "conditions": "blocking compound at 1 μM", "method": "Sagittal slices of Sprague-Dawley rat brains were sectioned (10 μm) with a cryostat (Thermo Scientific HM550) and mounted onto ColorFrost Plus microscope slides (Fisher Scientific 12-550-18) and stored at −20° C. […] After 15 min, 50 μCi of the radiolabeled compound of Example 2 was added to each bath. After 15 minutes, all slides were washed by dipping 10× into buffer and subsequently submerged in 50 mL baths of buffer at 4° C. for 5 minutes. The slides were dried at 35° C. in a vacuum chamber. A phosphorus screen (Perkin Elmer 7001723) was exposed with the slides for 45 minutes and subsequently imaged with a Cyclone Plus Storage Phosphor (Perkin Elmer) detector. ImageJ was used to apply a Gaussian blur (3.0 radius) smoothing and a lookup table (Royal) with equivalent thresholds for brightness was applied. Raw intensity values from gray and white matter were quantified with the ImageJ measurement tool."}, "Microsome stability": {"experiment": "Microsome stability", "conditions": "human, microsomes"}, "HDAC3 [11]": {"target": "T3, HDAC3", "experiment": "IC50 assay, BPS Biosciences fluorescence assay", "type": "biochemical", "conditions": "IC50 measured by BPS"}, "HDAC1 [12]": {"target": "T2, HDAC1", "experiment": "IC50 assay, BPS Biosciences fluorescence assay", "type": "biochemical", "conditions": "IC50 measured by BPS"}, "HDAC10 [13]": {"target": "T4, HDAC10", "experiment": "IC50 assay, BPS Biosciences fluorescence assay", "type": "biochemical"}, "[14]": {"test_system": "Human iPSC-derived neural progenitor cells", "experiment": "Acetylation level assay (Western blot)", "type": "cell-based", "conditions": "6 h at 37° C."}}}
{"compound": "CN(Cc1ccc(C(=O)NO)cc1F)CC12CC3CC(CC(C3)C1)C2", "note": "[Example 1, 4-(((((3s)-Adamantan-1-yl)methyl)(methyl)amino)methyl)-3-fluoro-N-hydroxybenzamide]", "values": [{"measurement": "Safety (DiscoverX Safety47 Panel)", "setting": "[1]", "result": "No effect at 10 μM"}, {"measurement": "T1/2", "setting": "[2]", "result": 15, "unit": "min"}, {"measurement": "half-life", "setting": "in vitro [3]", "result": "< 10", "unit": "min"}, {"measurement": "effect on time activity curve of radiolabeled Example 2", "setting": "PET/CT imaging in rats; 1 mg/kg, 30-minutes post radiotracer administration", "result": "clear deflection of the time activity curve"}, {"measurement": "effect on brain uptake of radiolabeled Example 2", "setting": "PET/CT imaging in rats; non-radioactive compound at 1 mg/kg", "result": "blocking of brain uptake"}, {"measurement": "IC50", "setting": "HDAC2 [4]", "result": "> 1", "unit": "µM"}, {"measurement": "half-life", "setting": "in vitro [5]", "result": "< 10", "unit": "min"}, {"measurement": "bioavailability", "setting": "in vivo; po", "result": 10, "unit": "%"}, {"measurement": "half-life", "setting": "in vivo; male, ip, 5 mg/kg", "result": 4.8, "unit": "min"}, {"measurement": "half-life", "setting": "in vivo; male, po, 5 mg/kg", "result": 15, "unit": "min"}, {"measurement": "Cmax", "setting": "in vivo; male, po, 5 mg/kg, Cmax", "result": 460, "unit": "nM"}, {"measurement": "Brain-penetrant?", "setting": "[6]", "result": "+++"}, {"measurement": "IC50", "setting": "HDAC1 [7]", "result": "> 1", "unit": "µM"}, {"measurement": "IC50", "setting": "HDAC3 [8]", "result": "> 1", "unit": "µM"}, {"measurement": "IC50", "setting": "HDAC10 [9]", "result": "> 1", "unit": "µM"}, {"measurement": "IC50", "setting": "HDAC2 [10]", "result": "> 1", "unit": "µM"}, {"measurement": "half-life", "setting": "Hepatocyte stability", "result": 20, "unit": "min"}, {"measurement": "binding of radiolabeled Example 2 to rat brain slices", "setting": "HDAC6", "result": "significantly reduced"}, {"measurement": "half-life", "setting": "Microsome stability", "result": 19, "unit": "min"}, {"measurement": "IC50", "setting": "HDAC3 [11]", "result": "> 1", "unit": "µM"}, {"measurement": "IC50", "setting": "HDAC1 [12]", "result": "> 1", "unit": "µM"}, {"measurement": "IC50", "setting": "HDAC10 [13]; BPS Biosciences, unit mM printed in cell", "result": "> 1", "unit": "mM"}, {"measurement": "IC50", "setting": "HDAC10 [13]; IC50 measured by BPS", "result": "> 0.001", "unit": "mM"}, {"measurement": "inhibition at 1000 µM", "setting": "HDAC10 [13]; read-out: HDAC10 Percentage Inhibition", "result": 21, "unit": "%"}, {"measurement": "Histone acetylation (H3K9 and H4K12)", "setting": "[14]; 10 μM", "result": "remained unaltered"}, {"measurement": "amount of cellular acetyl-α-Tubulin", "setting": "[14]; ACY1215 5 μM, other compounds 10 μM", "result": "increased"}]}
